Among the data in patent US20240174696A1, “2,8-DIAZASPIRO[4.5]DECANE COMPOUNDS” (Genentech, Inc., priority 2021, published 2024) are Ki and EC50 values, retold here.

Experiment [1] has as its target Human LATS2 catalytic domain (Homo sapiens (Human), UniProt Q9NRM7). The experiment in a line: LATS2 High ATP HTRF Assay. Type of experiment: biochemical. The note with it: no asterisk: LATS2 High ATP HTRF Assay, 5000 μM ATP, 0.05 nM LATS2. Put shortly: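 Phosphorylation of 0.5 μM STK S1 peptide at high ATP (5000 μM), 2 h at room temperature, by 0.05 nM LATS2 kinase domain/Mob1b complex after 10 min compound pre-incubation. Ki derived from HTRF-based IC50 (4-parameter logistic) by Cheng-Prusoff, ATP Km 105 μM.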

The subject of experiment [2] is TAZ nuclear translocation in SW1990 cells. The experiment in a line: TAZ Nuclear Translocation Assay. The note with it: Homo sapiens, 4 hours. It counts as cell-based. Here is the method:
The SW1990 cells (ATCC, CRL2172) were seeded at 5000 cells/well by adding 30 μL/well of cells in RPMI1640, 10% FBS, 2 mM glutamine culture media to a 384-well plate (Greiner 781091). The cells were incubated overnight at 37° C. Next day, test compounds were directly added to the cells using the Echo Liquid Handler (Labcyte), incubate at 37° C. for 4 hours. The cells were fixed with 4% paraformaldehyde and incubate for 20 minutes at room temperature. After washing three times with 100 μL PBS, 0.5% Triton X-100 was added to permeabilize the cells, incubate at room temperature for 5 minutes, following by washing the cells three times with PBS. 3% BSA was added to the cells, incubate for one hour at room temperature, following by washing three times with PBS. 50 μL of 1:750 diluted rabbit Anti-TAZ (Cell signaling D316D) in 3% BSA was added to the cells, incubate at 4° C. overnight. Next day, after washing the cells three times with PBS, 50 μL of 1:1250 diluted donkey anti-Rabbit, Alexa Fluor 488 (Invitrogen A21206) and 1:6250 diluted Hoechst 33342 (Molecular Probes H-21492) in 3% BSA was added to the cells, incubate at room temperature for one hour. The cells were washed three times with PBS, then image with the CellInsight CX7 High-Content Imager. The ratio of nuclear mean fluorescence intensity and cytoplasmic ring region mean fluorescence intensity was calculated. The % inhibition was normalized using DMSO as 0% inhibition and an inhibitor control as 100% inhibition. The EC50 values were calculated by fitting the % inhibition with a nonlinear four-parameter logistical equation.

A value given as a limit tells only on which side of the number the result lay.

Human LATS2 catalytic domain, sequence (Q9NRM7 553-1088): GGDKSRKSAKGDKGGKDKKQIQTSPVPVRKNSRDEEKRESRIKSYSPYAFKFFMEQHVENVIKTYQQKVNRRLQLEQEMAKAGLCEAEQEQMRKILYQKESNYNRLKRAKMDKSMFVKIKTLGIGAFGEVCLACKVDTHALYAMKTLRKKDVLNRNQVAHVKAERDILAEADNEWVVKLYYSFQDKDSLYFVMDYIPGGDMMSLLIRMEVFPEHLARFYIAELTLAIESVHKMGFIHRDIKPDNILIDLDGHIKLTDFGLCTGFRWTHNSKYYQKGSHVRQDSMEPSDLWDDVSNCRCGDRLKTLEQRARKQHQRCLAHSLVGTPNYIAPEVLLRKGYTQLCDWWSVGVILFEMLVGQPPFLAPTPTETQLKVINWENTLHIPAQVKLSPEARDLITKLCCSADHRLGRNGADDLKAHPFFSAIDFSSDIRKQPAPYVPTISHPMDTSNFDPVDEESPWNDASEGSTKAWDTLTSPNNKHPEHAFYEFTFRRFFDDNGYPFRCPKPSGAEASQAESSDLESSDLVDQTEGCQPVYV
Human LATS2 catalytic domain, sequence (Q7L9L4 whole entry partner, the tested form may be a part): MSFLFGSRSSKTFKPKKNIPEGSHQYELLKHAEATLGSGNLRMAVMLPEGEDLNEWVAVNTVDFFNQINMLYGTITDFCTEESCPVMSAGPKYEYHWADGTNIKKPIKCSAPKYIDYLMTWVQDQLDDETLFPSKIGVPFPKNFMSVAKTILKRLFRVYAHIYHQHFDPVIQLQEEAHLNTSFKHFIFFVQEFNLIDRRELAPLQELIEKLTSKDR

Broadly, the Ki is a dissociation constant, usually derived from enzyme kinetics or from competition with a known ligand. The low end stands for a stronger hold on the target, the high end for a looser hold on the target. For orientation: EC50 means the concentration needed to bring the measured effect to its halfway point. With `COc1cncc2nc(-c3ccncc3)nc(N3CCC4(CCNC4=O)CC3)c12` [Compound 279, 8-(5-methoxy-2-(pyridin-4-yl)pyrido[3,4-d]pyrimidin-4-yl)-2,8-diazaspiro[4.5]decan-1-one], the Ki in experiment [1] was found to be 4.5 nM. Besides, the EC50 in experiment [2] was determined as 5300 nM.

In experiment [1], `F[C@@H]1CNCC12CCN(c1nc(-c3ccncc3)nc3cnccc13)CC2` [Example 234, (S)-4-(4-fluoro-2,8-diazaspiro[4.5]decan-8-yl)-2-(pyridin-4-yl)pyrido[3,4-d]pyrimidine] gave a Ki of 4.5 nM. In experiment [2], this molecule gave an EC50 of 4200 nM.

Regarding `Cc1n[nH]cc1-c1nc(N2CCC3(CCN(CC(C)(C)O)C3)CC2)c2ccncc2n1` [Compound 150, 2-methyl-1-(8-(2-(3-methyl-1H-pyrazol-4-yl)pyrido[3,4-d]pyrimidin-4-yl)-2,8-diazaspiro[4.5]decan-2-yl)propan-2-o0], the Ki in experiment [1] stood at 0.059 nM. Also, the EC50 in experiment [2] stood at 280 nM.

In the case of `CN1CCC2(CCN(c3nc(-c4ccncc4)nc4cncc(OCC5COC5)c34)CC2)C1` [Compound 270, 4-(2-Methyl-2,8-diazaspiro[4.5]decan-8-yl)-5-(oxetan-3-ylmethoxy)-2-(pyridin-4-yl)pyrido[3,4-d]pyrimidine], the affinity in experiment [1] corresponds to a Ki of 0.15 nM. Besides, the EC50 in experiment [2] came to 860 nM.

`C[C@@H](CO)N1CCC2(CCN(c3nc(-c4ccncc4)nc4cnccc34)CC2)C1` (single isomer, unassigned) [Compound 104] displayed a Ki in experiment [1] of 0.53 nM. Also, a half-maximal effect in experiment [2] (EC50) was put at 450 nM.

`Cc1n[nH]cc1-c1nc(N2CCC3(CCN(C)C3)CC2)c2cc(Cc3ccccc3)ncc2n1` [Example 226, 6-benzyl-2-(3-methyl-1H-pyrazol-4-yl)-4-(2-methyl-2,8-diazaspiro[4.5]decan-8-yl)pyrido[3,4-d]pyrimidine] gave a Ki in experiment [1] of 0.016 nM. The half-maximal effective concentration (EC50) in experiment [2] was determined as 130 nM.

Regarding `COCc1cncc2nc(-c3ccncc3)nc(N3CCC4(CCNC4)CC3)c12` [Compound 243, 5-(Methoxymethyl)-2-(pyridin-4-yl)-4-(2,8-diazaspiro[4.5]decan-8-yl)pyrido[3,4-d]pyrimidine], the inhibition constant Ki in experiment [1] amounted to 1.9 nM. This molecule showed an EC50 in experiment [2] of 3900 nM.

Take `Cc1n[nH]cc1-c1nc(N2CCC3(CCNC3)CC2)c2ccncc2n1` [Compound 142, 2-(3-methyl-1H-pyrazol-4-yl)-4-(2,8-diazaspiro[4.5]decan-8-yl)pyrido[3,4-d]pyrimidine]: in experiment [1], the inhibitory constant (Ki) was found to be 0.037 nM. This molecule also came in with an EC50 in experiment [2] greater than 10000 nM.

Take `Oc1cncc2nc(-c3ccncc3)nc(N3CCC4(CCNC4)CC3)c12` [Compound 249, 2-(Pyridin-4-yl)-4-(2,8-diazaspiro[4.5]decan-8-yl)pyrido[3,4-d]pyrimidin-5-ol]: the Ki in experiment [1] was found to be 0.27 nM. Also, in experiment [2], the EC50 was greater than 10000 nM.

`OC1CNCC12CCN(c1nc(-c3ccncc3)nc3cnccc13)CC2` (stereo not shown) [Compound 187, 8-(2-(pyridin-4-yl)pyrido[3,4-d]pyrimidin-4-yl)-2,8-diazaspiro[4.5]decan-4-ol]: in experiment [1], the Ki came to 1.44 nM. The molecule also yielded an EC50 in experiment [2] greater than 10000 nM.

Regarding `c1cc2c(N3CCC4(CCNC4)CC3)nc(-c3ccnc4[nH]ccc34)nc2cn1` [Compound 156, 2-(1H-pyrrolo[2,3-b]pyridin-4-yl)-4-(2,8-diazaspiro[4.5]decan-8-yl)pyrido[3,4-d]pyrimidine], the Ki in experiment [1] was 0.7 nM. For the same molecule, the EC50 in experiment [2] was 4600 nM.

Molecule `Cc1cncc2nc(-c3ccncc3)nc(N3CCC4(CCNC4)CC3)c12` [Compound 162, 5-methyl-2-(pyridin-4-yl)-4-(2,8-diazaspiro[4.5]decan-8-yl)pyrido[3,4-d]pyrimidine] returned an inhibition constant Ki in experiment [1] of 1.54 nM. The molecule also displayed a 50% effective concentration (EC50) in experiment [2] of 4700 nM.

In the case of `CC1CC2(CCN(c3nc(-c4ccncc4)nc4cnccc34)CC2)CN1C` (stereo not shown) [Compound 168, 4-(2,3-dimethyl-2,8-diazaspiro[4.5]decan-8-yl)-2-(pyridin-4-yl)pyrido[3,4-d]pyrimidine], the Ki in experiment [1] came out at 1.62 nM. The molecule further showed an EC50 in experiment [2] of 830 nM.

As to `CC(C)(O)CN1CCC2(CCN(c3nc(-c4ccncc4)nc4cncc(OC5COC5)c34)CC2)C1` [Compound 268, 2-Methyl-1-(8-(5-(oxetan-3-yloxy)-2-(pyridin-4-yl)pyrido[3,4-d]pyrimidin-4-yl)-2,8-diazaspiro[4.5]decan-2-yl)propan-2-o0], the Ki in experiment [1] stood at 0.034 nM. Besides, in experiment [2], the EC50 is 130 nM.

As to `CC(=O)NCCN1CCC2(CCN(c3nc(-c4ccncc4)nc4cnccc34)CC2)C1` [Compound 123, N-(2-(8-(2-(pyridin-4-yl)pyrido[3,4-d]pyrimidin-4-yl)-2,8-diazaspiro[4.5]decan-2-yl)ethyl)acetamide], the Ki in experiment [1] was found to be 1.09 nM. This molecule came in with an EC50 in experiment [2] of 2100 nM.

For `C=CCOc1cncc2nc(-c3ccncc3)nc(N3CCC4(CCNC4)CC3)c12` [Compound 254, 5-(allyloxy)-2-(pyridin-4-yl)-4-(2,8-diazaspiro[4.5]decan-8-yl)pyrido[3,4-d]pyrimidine], the Ki in experiment [1] was 0.018 nM. For the same molecule, the concentration giving a half-maximal response (EC50) in experiment [2] was 100 nM.

Turning to `Cc1n[nH]cc1-c1nc(N2CCC3(CCN(CCO)C3)CC2)c2ccncc2n1` [Compound 146, 2-(8-(2-(3-methyl-1H-pyrazol-4-yl)pyrido[3,4-d]pyrimidin-4-yl)-2,8-diazaspiro[4.5]decan-2-yl)ethan-1-ol], the affinity in experiment [1], expressed as Ki, was 0.088 nM. Also, the EC50 in experiment [2] was 2700 nM.

`COCc1nccc2c(N3CCC4(CCNC4)CC3)nc(-c3ccncc3)nc12` [Compound 242, 8-(methoxymethyl)-2-(pyridin-4-yl)-4-(2,8-diazaspiro[4.5]decan-8-yl)pyrido[3,4-d]pyrimidine]: the Ki in experiment [1] is 0.76 nM. In experiment [2], this molecule showed an EC50 of 2800 nM.

In turn, `FC(F)c1[nH]ncc1-c1nc(N2CCC3(CCNC3)CC2)c2ccncc2n1` [Example 213, 2-(5-(difluoromethyl)-1H-pyrazol-4-yl)-4-(2,8-diazaspiro[4.5]decan-8-yl)pyrido[3,4-d]pyrimidine] came in with a Ki in experiment [1] of 0.6 nM. The molecule also showed an EC50 in experiment [2] greater than 10000 nM.

`CCc1cncc2nc(-c3ccncc3)nc(N3CCC4(CCNC4)CC3)c12` [Example 204, 5-Ethyl-2-(pyridin-4-yl)-4-(2,8-diazaspiro[4.5]decan-8-yl)pyrido[3,4-d]pyrimidine]: the Ki in experiment [1] was determined as 1.1 nM. In experiment [2], this molecule displayed an EC50 of 1000 nM.

Turning to `COc1cnc(Cl)c2nc(-c3ccncc3)nc(N3CCC4(CCN(C)C4)CC3)c12` [Compound 275, 8-chloro-5-methoxy-4-(2-methyl-2,8-diazaspiro[4.5]decan-8-yl)-2-(pyridin-4-yl)pyrido[3,4-d]pyrimidine], affinity in experiment [1] was put at a Ki of 0.02 nM. The EC50 in experiment [2] stood at 310 nM.

For `c1cc(-c2nc(N3CCC4(CC3)CCN(C3CCOC3)C4)c3ccncc3n2)ccn1` (racemic) [Compound 111, 2-(pyridin-4-yl)-4-(2-(tetrahydrofuran-3-yl)-2,8-diazaspiro[4.5]decan-8-yl)pyrido[3,4-d]pyrimidine], the Ki in experiment [1] came to 0.14 nM. In experiment [2], this molecule gave an EC50 of 630 nM.

In experiment [1], `O[C@H]1COC[C@@H]1N1CCC2(CCN(c3nc(-c4ccncc4)nc4cnccc34)CC2)C1` (single isomer, unassigned) [Compound 177] returned a Ki of 0.39 nM. The EC50 in experiment [2] came out at 2500 nM.

With `OCc1cncc2nc(-c3ccncc3)nc(N3CCC4(CCNC4)CC3)c12` [Example 239, (2-(Pyridin-4-yl)-4-(2,8-diazaspiro[4.5]decan-8-yl)pyrido[3,4-d]pyrimidin-5-yl)methanol], the Ki in experiment [1] was determined as 4.9 nM. This molecule came in with an EC50 in experiment [2] greater than 10000 nM.

As for `C#CCN1CCC2(CCN(c3nc(-c4ccncc4)nc4cnccc34)CC2)C1` [Compound 261, 4-(2-(prop-2-yn-1-yl)-2,8-diazaspiro[4.5]decan-8-yl)-2-(pyridin-4-yl)pyrido[3,4-d]pyrimidine], in experiment [1], the affinity, expressed as Ki, was 0.1 nM. For the same molecule, in experiment [2], the midpoint of the response, the EC50, lay at 580 nM.

`O[C@@H]1CC[C@@H]1N1CCC2(CCN(c3nc(-c4ccncc4)nc4cnccc34)CC2)C1` (single isomer, unassigned) [Compound 180] yielded a Ki in experiment [1] of 1.38 nM. The response in experiment [2] was half-maximal at 1300 nM (EC50).

In experiment [1], `Cc1[nH]ncc1-c1nc(N2CCC3(CCN(CC(F)F)C3)CC2)c2ccncc2n1` [Example 220, 4-(2-(2,2-difluoroethyl)-2,8-diazaspiro[4.5]decan-8-yl)-2-(3-methyl-1H-pyrazol-4-yl)pyrido[3,4-d]pyrimidine] displayed a Ki of 0.074 nM. In experiment [2], this molecule gave an EC50 of 660 nM.

Take `COC[C@H]1CC2(CCN(c3nc(-c4ccncc4)nc4cnccc34)CC2)CN1` (single isomer, unassigned) [Example 221]: in experiment [1], the Ki came out at 0.32 nM. This molecule also registered an EC50 in experiment [2] of 230 nM.

For `Brc1cncc2nc(-c3ccncc3)nc(N3CCC4(CCNC4)CC3)c12` [Example 225, 5-Bromo-2-(pyridin-4-yl)-4-(2,8-diazaspiro[4.5]decan-8-yl)pyrido[3,4-d]pyrimidine], the Ki in experiment [1] stood at 2.1 nM. In addition, the response in experiment [2] was half-maximal at 1800 nM (EC50).
